Laboratory results from patent US20250305004A1, “ENHANCING GENE TARGETING EFFICIENCY IN HUMAN CELLS WITH DNA-PK INHIBITOR TREATMENT” (The Board of Trustees of the Leland Stanford Junior …, priority 2022, published 2025).
Entries after “also recorded” stand apart in the source; their conditions may differ.

Key:
[1] = system: STING1 locus in PSCs; assay: RNP/AAV6 gene targeting at STING1 locus (V155M) in PSCs; assay type: cell-based, human
Procedure: In comparison, the untreated cells had around 30% INDELs (FIG. 4D-E).
For this, we tested gene targeting at the STING1 locus to introduce a point mutation (V155M) associated with an autoinflammatory disease called STING-associated vasculopathy with onset in infancy (SAVI)^86 (FIG. 12a). […] To test the feasibility of building a primary cell SAVI model, we next performed the STING1 gene targeting in human CD34+ HSPCs.
PSC culture and genome editing. Gene editing experiments were performed with three PSC lines: H9 embryonic stem cells (ESC) (WiCell) and the previously described 1205-4 and 1208-2 iPS cell lines^106. PSCs were maintained in feeder free conditions on Matrigel (corning, cat: 354277) coated plates in mTeSR1 medium ([…] technologies, cat: 85850). For gene editing, 24 h prior to nucleofection PSCs were pretreated with 10 μM of Y27632 (Cayman Chemical, cat: 10005583). […] PSCs were dissociated into single cells using Accutase (Innovative Cell Technologies, cat: AT104). […] Resuspended cells were added to one well of a 16-well Nucleocuvette Strip (Lonza) and nucleofection was performed in the 4D nucleofector (Lonza) using the program, CA137. […] Gene targeting efficiency was analyzed at 4-6 days post-editing.
(§1) ICE analysis for quantification of gene editing.

[2] = system: TRAC gene locus in T cells; conditions: 0.5 μM; AAV6 MOI 1250 and 2500
From the text: (FIG. 34d). Next, we tested the effect of compound treatment when titrating down the AAV6 donor amounts for gene targeting at the CCR5 locus. […] For this, we assessed the CD19-CAR knock-in at the TRAC gene locus in T cells using a previously reported gene editing strategy^87 (FIG. 14c).

[3] = system: CFTR locus in HBECs; assay: RNP/AAV6 gene targeting at CFTR locus in HBECs; assay type: cell-based, human; conditions: 0.5 μM
Procedure: as §1
Cell culture and genome editing of HBECs. Human bronchial epithelial cells (HBECs) were obtained from Lonza Inc., the Primary Airway Cell Biobank at McGill University, the Cystic Fibrosis Foundation Cell Bank or the University of North Carolina. […] Cells were cultured at 37° C. in 5% 02 and 5% CO2.

[4] = system: CCR5 locus in B cells; assay: RNP/AAV6 gene targeting at CCR5 locus in B cells; assay type: cell-based, human; conditions: different concentrations (4, 2, 1, 0.5 and 0.1 μM); ddPCR
Procedure: B cell culture and genome editing. […] B cells were cultured at 37° C., 5% CO2, and ambient oxygen levels.
For genome editing, gRNA targeting CCR5 was complexed with Cas9 protein were complexed at a 2.5:1 ([…]) molar ratio at room temperature for 20 min. […] Cells were then replated at 1 million cells/ml in complete B cell activation media. […] Gene targeting was assessed at 3-days post-editing.

[5] = system: top off-target sites of HBB, CCR5 and HBA1 gRNAs in HSPCs; assay: NGS off-target analysis in gene targeted HSPCs; assay type: cell-based, human
From the text: For this, we assessed the previously characterized top off-target site for CCR5 (OT39)^66, HBB (OT1)^72 and HBA1 (OT1)74 gRNAs in the gene targeted HSPCs using next generation sequencing (NGS). […] Blocking of specific off-target breaks is possible, however, if there were biologically important reasons to do so^79, 80. […] Thus, gene editing with AZD treatment increases the frequency alleles with WT sequence and deletion INDELs without the HDR donor template.
NGS analysis for off-target effects. For this, we used commercially available Amplicon-EZ next generation sequencing service from AZENTA, Inc. Previously characterized top off-target site for CCR5 (OT39), HBB (OT1) and HBA1 (OT1) gRNAs were analyzed. PCR was used to amplify a 350-450 bp region encompassing the off-target sites from genomic DNA of the gene targeted HSPCs. Following are the primers used for PCR,
Following PCR, the amplicons were purified using Genejet PCR purification kit (Thermo Fisher Scientific, cat: K0701). The samples were normalized to a concentration of 20 ng/μl and 25 μl volume was submitted for Amplicon-EZ NGS service (AZENTA, Inc). DNA library preparations, sequencing reactions, and bioinformatics analysis were conducted at AZENTA, Inc. DNA Library Preparation was done using NEBNext Ultra DNA Library Prep kit following the manufacturer's recommendations (NEB). […] DNA libraries were validated on the Agilent TapeStation (Agilent Technologies) and were quantified using Qubit 2.0 Fluorometer (Invitrogen) and multiplexed in equal molar mass. […] The raw Illumina reads were checked for adapters and quality via FastQC. The raw Illumina sequence reads were trimmed of their adapters and nucleotides with poor quality using Trimmomatic v.0.36. Paired sequence reads were then merged to form a single sequence if the forward and reverse reads were able to overlap. The merged reads were aligned to the reference sequence and variant detection was performed using AZENTA proprietary Amplicon-EZ program. INDEL frequency at the target site was quantified and plotted as the frequency of reads with insertions and deletions.

[6] = system: human primary cells; assay: Gene targeting across different genomic loci and primary cell types (summary statements); assay type: cell-based; conditions: in some examples
From the text: Nuclease-based genome editing can result in either site-specific insertions/deletions (INDELs) or targeted integrations depending on which pathway of natural DNA double-strand break repair is harnessed: non-homologous end-joining (NHEJ), microhomology mediated end-joining (MMEJ) or homology-directed repair (HDR).

Cc1cc2ncnn2cc1Nc1ncc2c(n1)n(C1CCOCC1)c(=O)n2C [AZD7648, 7-methyl-2-((7-methyl-[1,2,4]triazolo[l,5-a]pyridin-6-yl)amino)-9-(tetrahydro-2H-pyran-4-yl)-7,9-dihydro-8H-purin-8-one]
INDELs after gene targeting ([1]; active gRNA (sg3)): without INDELs; also recorded: no INDELs | INDELs after gene targeting ([1]; seemingly inactive gRNA (sg5), 0.5 μM): without indels; also recorded: no INDELs | increase in frequency of CD19-CAR+ T cells vs untreated [2]: 1.4 fold | alleles with INDELs vs untreated ([3]; CF patient derived HBECs): much lower frequency of alleles with INDELs | improvement of frequency of gene targeted (GFP+) cells ([3]; exon 1 knock-in): around 2 fold | enhancement of gene targeting [4]: about 2 fold | reads with INDELs at off-target site ([5]; OT1 site for HBA1 gRNA, untreated […]): around 0.5% | reads with INDELs at off-target site ([5]; OT1 site for HBB gRNA, 0.5 μM, untreated 1%): about 3% | reads with INDELs at off-target site ([5]; OT39 site for CCR5 gRNA, untreated below detection limit): 0.03% | increase in HDR [6]: up to 50 fold
